The nature of this test: Antagonist activity at human CCR5 expressed in HOS cells assessed as inhibition of cell fusion with HIV gp120 expressing HEK293 cells by LTR luciferase assay.

pIC50: −log10 of the molar value. Counter-ions that a name gives are not always drawn.

A word on the pIC50: it is the IC50 on a negative log10 scale, so that one unit is a factor of ten.

On to `CCCCN1C(=O)[C@@H]([C@H](O)C(C)C)NC(=O)C12CCN(Cc1ccc(Oc3ccccc3)cc1)CC2` [(R)-1-butyl-3-((R)-1-hydroxy-2-methyl-propyl)-9-(4-phenoxy-benzyl)-1,4,9-triaza-spiro[5.5]undecane-2,5-dione hydrochloride], for which the pIC50 is 6.64.
For `CCCCN1C(=O)C(CC(C)C)NC(=O)C12CCN(Cc1ccc(Oc3ccccc3)cc1)CC2` (stereo not drawn) [rac-1-Butyl-3-isobutyl-9-(4-phenoxybenzyl)-1,4,9-triazaspiro[5.5]undecane-2,5-dione hydrochloride] the value was 6.07.

These data come from BindingDB's records for doi:10.1016/j.bmcl.2010.12.109 (Ono Pharmaceutical, 2011).
